Test results reported in US20120157471A1, “BENZIMIDAZOLE DERIVATIVES” (PFIZER INC., priority 2009, published 2012).

How the values were obtained:
[1] = target: T1, human Smo (amino acids 181-787) (Homo sapiens, UniProt Q99835); assay: Smo radioligand competition binding assay (displacement of 3H-PF-03451358 from HEK293 membranes); settings: for inhibition at 0.05 µM: 0.05 μM test compound, displacement of 3H-PF-03451358, read-out: SMO % inh. @ 0.05 μM; for IC50: radioligand competition binding
T1 construct: expressed in transfected cells; membrane preparation
How it was run: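 Displacement of 3 nM tritiated PF-03451358 measured by filtration and scintillation counting after 2 h at room temperature, using 40 μg/well HEK293 membranes bearing cell-surface Smo 181-787, pH 7.5 buffer. Specific binding defined against 30 μM unlabelled ligand; IC50 via variable-slope sigmoidal fit.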

Gli-Luc/MEF cells (Smo) = assay: Gli-Luc/MEF assay (Shh-stimulated luciferase reporter under the Gli response element); type: cell-based, mouse; settings: Mus musculus, MEF, 48 h
How it was run: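 IC50 derived from luminescence (Bright-Glo) after 48 h at 37° C, 5% CO2, with compound at […] (3-fold dilutions) added together with mouse Shh at 2 μg/mL final. Cells: MEFs from Gli-Luc transgenic mice.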

T1 sequence (Q99835 181-787): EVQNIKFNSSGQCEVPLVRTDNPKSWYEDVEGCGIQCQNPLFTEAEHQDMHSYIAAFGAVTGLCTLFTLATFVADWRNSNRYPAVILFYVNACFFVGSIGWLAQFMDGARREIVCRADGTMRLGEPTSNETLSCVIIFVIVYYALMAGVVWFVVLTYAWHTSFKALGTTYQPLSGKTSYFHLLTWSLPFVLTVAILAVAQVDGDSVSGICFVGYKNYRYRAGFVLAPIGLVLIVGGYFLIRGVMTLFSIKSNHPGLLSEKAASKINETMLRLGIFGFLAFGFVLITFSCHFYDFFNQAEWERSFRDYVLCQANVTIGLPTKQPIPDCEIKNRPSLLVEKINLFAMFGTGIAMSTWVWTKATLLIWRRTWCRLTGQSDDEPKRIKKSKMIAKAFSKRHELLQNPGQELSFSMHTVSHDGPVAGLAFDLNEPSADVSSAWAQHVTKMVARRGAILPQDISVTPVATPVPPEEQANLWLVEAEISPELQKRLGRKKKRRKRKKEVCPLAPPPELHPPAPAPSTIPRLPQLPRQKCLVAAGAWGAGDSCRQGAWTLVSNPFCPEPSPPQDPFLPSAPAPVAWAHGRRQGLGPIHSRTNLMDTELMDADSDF

SMILES: Cn1c(-c2cc(N3CCC(F)(F)CC3)ncc2Cl)nc2ccccc21 [Example A-210, 2-[5-chloro-2-(4,4-difluoropiperidin-1-yl)pyridin-4-yl]-1-methyl-1H-benzimidazole]
- inhibition at 0.05 µM [1]: 87%
- IC50 [1]: 57 nM
- IC50 (Gli-Luc/MEF cells (Smo)): 22 nM

SMILES: CN1CCN(C2CCN(c3cc(-c4nc5ccccc5n4C)c(Cl)cn3)CC2)CC1 [Example A-113, 2-{5-chloro-2-[4-(4-methylpiperazin-1-yl)piperidin-1-yl]pyridin-4-yl}-1-methyl-1H-benzimidazole]
- inhibition at 0.05 µM [1]: 72%
- IC50 [1]: 125 nM
- IC50 (Gli-Luc/MEF cells (Smo)): 17 nM

SMILES: Cc1cnc(N2CCC(S(C)(=O)=O)CC2)cc1-c1nc2ccccc2n1C [Example E-5, 1-methyl-2-{5-methyl-2-[4-(methylsulfonyl)piperidin-1-yl]pyridin-4-yl)-1H-benzimidazole]
- inhibition at 0.05 µM [1]: 89%
- IC50 [1]: 59 nM
- IC50 (Gli-Luc/MEF cells (Smo)): 58.9 nM

SMILES: Cn1c(-c2cc(N3[C@@H]4CC[C@H]3CN(C(=O)CO)C4)ncc2Cl)nc2ccccc21 [Example A-207, 2-{(1R,5S)-8-[5-chloro-4-(1-methyl-1H-benzimidazol-2-yl)pyridin-2-yl]-3,8-diazabicyclo[3.2.1]oct-3-yl}-2-oxoethanol]
- inhibition at 0.05 µM [1]: 94%
- IC50 [1]: 10 nM
- IC50 (Gli-Luc/MEF cells (Smo)): 17.3 nM

SMILES: Cn1c(-c2cc(N3CCC(C(=O)N4CCCC4)CC3)ncc2Cl)nc2ccccc21 [Example A-100, 2-{5-chloro-2-[4-(pyrrolidin-1-ylcarbonyl)piperidin-1-yl]pyridin-4-yl}-1-methyl-1H-benzimidazole]
- inhibition at 0.05 µM [1]: 83%
- IC50 [1]: 55 nM
- IC50 (Gli-Luc/MEF cells (Smo)): 21 nM

SMILES: COCC(=O)N1CCN(c2ncc(Cl)c(-c3nc4ccccc4n3C)n2)CC1 [Example C-16, 2-{5-chloro-2-[4-(methoxyacetyl)piperazin-1-yl]pyrimidin-4-yl}-1-methyl-1H-benzimidazole]
- inhibition at 0.05 µM [1]: 99%
- IC50 [1]: 14 nM
- IC50 (Gli-Luc/MEF cells (Smo)): 12.7 nM

SMILES: Cn1c(-c2ccnc(N3CCC(NS(C)(=O)=O)CC3)c2)nc2ccccc21 [Example A-17, N-{1-[4-(1-methyl-1H-benzimidazol-2-yl)pyridin-2-yl]piperidin-4-yl}methanesulfonamide]
- inhibition at 0.05 µM [1]: 99%
- IC50 [1]: 13 nM
- IC50 (Gli-Luc/MEF cells (Smo)): 6 nM

SMILES: Cn1c(-c2cc(N3CCC(C(=O)N4CCOCC4)CC3)ncc2Cl)nc2ccccc21 [Example A-80, 2-{5-chloro-2-[4-(morpholin-4-ylcarbonyl)piperidin-1-yl]pyridin-4-yl}-1-methyl-1H-benzimidazole]
- inhibition at 0.05 µM [1]: 92%
- IC50 [1]: 45 nM
- IC50 (Gli-Luc/MEF cells (Smo)): 8 nM

SMILES: CCn1c(-c2cc(N3CCN(C(C)=O)CC3)ncc2Cl)nc2ccccc21 [Example A-214, 2-[2-(4-acetylpiperazin-1-yl)-5-chloropyridin-4-yl]-1-ethyl-1H-benzimidazole]
- inhibition at 0.05 µM [1]: 63%
- IC50 [1]: 432 nM
- IC50 (Gli-Luc/MEF cells (Smo)): 124 nM

SMILES: Cn1c(-c2cc(N3CCC(NS(C)(=O)=O)CC3)ncc2F)nc2ccccc21 [Example D-11, N-{1-[5-fluoro-4-(1-melhyl-1H-benzimidazol-2-yl)pyridin-2-yl]piperidin-4-yl}methanesulfonamide]
- inhibition at 0.05 µM [1]: 98%
- IC50 [1]: 6 nM
- IC50 (Gli-Luc/MEF cells (Smo)): 4.2 nM

SMILES: CNC(=O)N(C)C1CN(c2cc(-c3nc4ccccc4n3C)c(Cl)cn2)C1 [Example A-151, 1-{1-[5-chloro-4-(1-methyl-1H-benzimidazol-2-yl)pyridin-2-yl]azetidin-3-yl}-1,3-dimethylurea]
- inhibition at 0.05 µM [1]: 83%
- IC50 [1]: 90 nM
- IC50 (Gli-Luc/MEF cells (Smo)): 26 nM

SMILES: Cn1c(-c2cc(N3CCC(OCCO)CC3)ncc2Cl)nc2ccccc21 [Example A-79, 2-({1-[5-chloro-4-(1-methyl-1H-benzimidazol-2-yl)pyridin-2-yl]piperidin-4-yl}oxy)ethanol]
- inhibition at 0.05 µM [1]: 92%
- IC50 [1]: 23 nM
- IC50 (Gli-Luc/MEF cells (Smo)): 7 nM

SMILES: Cn1c(-c2cc(N3CCN4C[C@H](O)CC4C3)ncc2Cl)nc2ccccc21 (stereo in doubt) [Example A-60, (7R,8aS)-2-[5-chloro-4-(1-methyl-1H-benzimidazol-2-yl)pyridin-2-yl]octahydropyrrolo[1,2-a]pyrazin-7-ol]
- inhibition at 0.05 µM [1]: 96%
- IC50 [1]: 27 nM
- IC50 (Gli-Luc/MEF cells (Smo)): 22 nM

SMILES: CC(=O)N1CCN(c2cc(-c3nc4ccccc4n3C)c(Cl)cn2)C[C@H]1C [Example A-159, 2-{2-[(3R)-4-acetyl-3-methylpiperazin-1-yl]-5-chloropyridin-4-yl}-1-methyl-1H-benzimidazole]
- inhibition at 0.05 µM [1]: 100%
- IC50 [1]: 10 nM
- IC50 (Gli-Luc/MEF cells (Smo)): 4 nM

SMILES: CN(CCS(C)(=O)=O)c1cc(-c2nc3ccccc3n2C)c(Cl)cn1 [Example A-72, 5-chloro-N-methyl-4-(1-methyl-1H-benzimidazol-2-yl)-N-[2-(methylsulfonyl)ethyl]pyridin-2-amine]
- inhibition at 0.05 µM [1]: 94%
- IC50 [1]: 25 nM
- IC50 (Gli-Luc/MEF cells (Smo)): 12 nM

SMILES: Cc1cn(C2CN(c3cc(-c4nc5ccccc5n4C)c(Cl)cn3)C2)c(=O)[nH]c1=O [Example A-121, 1-{1-[5-chloro-4-(1-methyl-1H-benzimidazol-2-yl)pyridin-2-yl]azetidin-3-yl}-5-methylpyrimidine-2,4(1H,3H)-dione]
- inhibition at 0.05 µM [1]: 62%
- IC50 (Gli-Luc/MEF cells (Smo)): 94 nM

SMILES: CNC(=O)N1CCN(c2cccc(-c3nc4ccccc4n3C)n2)CC1 [Example B-10, N-methyl-4-[6-(1-methyl-1H-benzimidazol-2-yl)pyridin-2-yl]piperazine-1-carboxamide]
- inhibition at 0.05 µM [1]: 72%
- IC50 [1]: 82 nM
- IC50 (Gli-Luc/MEF cells (Smo)): 89 nM

SMILES: CCS(=O)(=O)N1CCN(c2cc(-c3nc4ccccc4n3C)c(F)cn2)CC1 [Example D-5, 2-{2-[4-(ethylsulfonyl)piperazin-1-yl]-5-fluoropyridin-4-yl}-1-methyl-1H-benzimidazole]
- inhibition at 0.05 µM [1]: 97%
- IC50 [1]: 18 nM
- IC50 (Gli-Luc/MEF cells (Smo)): 17 nM

SMILES: Cc1ccc(N2CCC(NS(C)(=O)=O)CC2)nc1-c1nc2ccccc2n1C [Example B-13, N-{1-[5-methyl-6-(1-methyl-1H-benzimidazol-2-yl)pyridin-2-yl]piperidin-4-yl}methanesulfonamide]
- inhibition at 0.05 µM [1]: 98%
- IC50 [1]: 11 nM
- IC50 (Gli-Luc/MEF cells (Smo)): 8.2 nM

SMILES: Cn1c(-c2cc(N3CCC(O)(CN4CCOCC4)CC3)ncc2Cl)nc2ccccc21 [Example A-88, 1-[5-chloro-4-(1-methyl-1H-benzimidazol-2-yl)pyridin-2-yl]-4-(morpholin-4-ylmethyl)piperidin-4-ol]
- inhibition at 0.05 µM [1]: 89%
- IC50 [1]: 61 nM
- IC50 (Gli-Luc/MEF cells (Smo)): 28 nM

SMILES: COC(=O)N1CCN(c2cccc(-c3nc4ccccc4n3C)n2)CC1 [Example B-9, methyl 4-[6-(1-methyl-1H-benzimidazol-2-yl)pyridin-2-yl]piperazine-1-carboxylate]
- inhibition at 0.05 µM [1]: 82%
- IC50 [1]: 122 nM
- IC50 (Gli-Luc/MEF cells (Smo)): 143 nM

SMILES: CN(C)CC(=O)N1CCN(c2cc(-c3nc4ccccc4n3C)c(Cl)cn2)CC1 [Example A-192, 2-{4-[5-chloro-4-(1-methyl-1H-benzimidazol-2-yl)pyridin-2-yl]piperazin-1-yl}-N,N-dimethyl-2-oxoethanamine]
- inhibition at 0.05 µM [1]: 87%
- IC50 [1]: 15 nM
- IC50 (Gli-Luc/MEF cells (Smo)): 2.4 nM

SMILES: COC(=O)NC1CCN(c2cc(-c3nc4ccccc4n3C)c(Cl)cn2)CC1 [Example A-32, methyl {1-[5-chloro-4-(1-methyl-1H-benzimidazol-2-yl)pyridin-2-yl]piperidin-4-yl}carbamate]
- inhibition at 0.05 µM [1]: 89%
- IC50 [1]: 7 nM
- IC50 (Gli-Luc/MEF cells (Smo)): 1 nM

SMILES: Cn1c(-c2ccnc(N3CCCN(S(C)(=O)=O)CC3)c2)nc2ccccc21 [Example A-14, 1-methyl-2-{2-[4-(methylsulfonyl)-1,4-diazepan-1-yl]pyridin-4-yl}-1H-benzimidazole]
- inhibition at 0.05 µM [1]: 84%
- IC50 [1]: 31 nM
- IC50 (Gli-Luc/MEF cells (Smo)): 84 nM

SMILES: Cn1c(-c2cc(N3CCC(CO)(CCO)C3)ncc2Cl)nc2ccccc21 (stereo not shown) [Example A-85, 2-{1-[5-chloro-4-(1-methyl-1H-benzimidazol-2-yl)pyridin-2-yl]-3-(hydroxymethyl)pyrrolidin-3-yl}ethanol]
- inhibition at 0.05 µM [1]: 90%
- IC50 [1]: 17 nM
- IC50 (Gli-Luc/MEF cells (Smo)): 7 nM

SMILES: Cn1c(-c2cc(N3CCC(NS(C)(=O)=O)C3)ncc2Cl)nc2ccccc21 (stereo not shown) [Example A-153, N-{1-[5-chloro-4-(1-methyl-1H-benzimidazol-2-yl)pyridin-2-yl]pyrrolidin-3-yl}methanesulfonamide]
- inhibition at 0.05 µM [1]: 93%
- IC50 [1]: 23 nM
- IC50 (Gli-Luc/MEF cells (Smo)): 15 nM

SMILES: CNC(=O)N1CCN(c2ccc(Cl)c(-c3nc4ccccc4n3C)n2)CC1 [Example B-3, 4-[5-chloro-6-(1-methyl-1H-benzimidazol-2-yl)pyridin-2-yl]-N-methylpiperazine-1-carboxamide]
- inhibition at 0.05 µM [1]: 88%
- IC50 [1]: 49 nM
- IC50 (Gli-Luc/MEF cells (Smo)): 20 nM

SMILES: Cn1c(-c2cc(NCCS(N)(=O)=O)ncc2Cl)nc2ccccc21 [Example A-165, 2-{[5-chloro-4-(1-methyl-1H-benzimidazol-2-yl)pyridin-2-yl]amino}ethanesulfonamide]
- inhibition at 0.05 µM [1]: 62%
- IC50 [1]: 374 nM
- IC50 (Gli-Luc/MEF cells (Smo)): 280 nM

SMILES: Cn1c(-c2cc(N3CCC(S(C)(=O)=O)CC3)ncc2Cl)nc2ccccc21 [Example A-20, 2-{5-chloro-2-[4-(methylsulfonyl)piperidin-1-yl]pyridin-4-yl}-1-methyl-1H-benzimidazole]
- inhibition at 0.05 µM [1]: 87%
- IC50 [1]: 19 nM
- IC50 (Gli-Luc/MEF cells (Smo)): 8 nM

SMILES: Cn1c(-c2cc(N3CCC(O)(CN4CCCC4=O)CC3)ncc2Cl)nc2ccccc21 [Example A-118, 1-({1-[5-chloro-4-(1-methyl-1H-benzimidazol-2-yl)pyridin-2-yl]-4-hydroxypiperidin-4-yl}methyl)pyrrolidin-2-one]
- inhibition at 0.05 µM [1]: 65%
- IC50 (Gli-Luc/MEF cells (Smo)): 110 nM
